Eight compounds from ChEMBL document CHEMBL1201862, “PubChem BioAssay data set” (2004) can be followed below.

Structures are written as SMILES.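 Test compounds were applied to cells in 96-well plates for 48 hours at 5 doses. GI50 = concentration required for 50% inhibition of growth.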 Active and inactive are the calls of the source. Cut-off read from the data, not from the text of the source: active = GI50 up to about 1.1 µM and inactive = higher. Where only a bound is given, the exact number is not on record here.

Assay in all cases: NCI anticancer screen, dose series, 48 h
Experiment [1] has as its system A549.
Experiment [2] concerns CAKI-1.
For experiment [3], the system named is CCRF-CEM.
Experiment [4] relates to COLO 205.
Experiment [5] relates to DU-145.
In experiment [6] the test system is HOP-92.
The subject of experiment [7] is IGROV-1.
The subject of experiment [8] is K562.
For experiment [9], the system named is M14.
The test system of experiment [10] is MDA-MB-231.
Experiment [11] relates to MOLT-4.
Experiment [12] relates to NCI-H460.
In experiment [13] the test system is OVCAR-3.
The test system of experiment [14] is PC-3.
Experiment [15] relates to RXF 393.
Experiment [16] relates to SF-268.
Experiment [17] concerns SNB-19.
Experiment [18] concerns SR.
Experiment [19] concerns NCI-H226.
In experiment [20] the test system is SK-MEL-28.

Consider `C(=N\NC1=NCCN1)/c1ccc(-c2cn3cc(/C=N/NC4=NCCN4)ccc3n2)cc1`, for which the GI50 in experiment [1] is 10.2 µM (inactive); in [2], 22 µM (inactive); in experiment [3], 2.74 µM (inactive); in [4], > 100 µM (inactive); in [5] it was 16.6 µM (inactive); in experiment [6] it was 18.8 µM (inactive). For the same compound, the GI50 was 15 µM (inactive) in experiment [7]; 14.6 µM (inactive) in [8]; > 32.7 µM (inactive) in experiment [9]; 14.6 µM (inactive) in experiment [10]; 5.35 µM (inactive) in experiment [11]; 3.76 µM (inactive) in experiment [12]. In addition, the GI50 in experiment [13] is > 39.4 µM (inactive); in experiment [14], 22.9 µM (inactive); in experiment [15] it was > 55.6 µM (inactive); in experiment [16], 9.79 µM (inactive); in experiment [17], > 43.1 µM (inactive); in experiment [18], 3.33 µM (inactive).

In the case of `CC(=O)N(C(C)=O)n1c(Cc2ccc(Cl)cc2)nn(C(C)=O)c1=O`, the GI50 in experiment [1], in experiment [3], in experiment [4], in experiment [5], in [7] and in experiment [8] was > 100 µM (inactive) in each case. Also, the GI50 in experiment [9], in experiment [10], in experiment [11], in [19], in experiment [12] and in [13] was > 100 µM (inactive) in each case. Besides, the GI50 in [14], in [15], in experiment [16], in [20], in [17] and in experiment [18] was > 100 µM (inactive) throughout.

In the case of `CN1CN(c2ccccc2)C2(CCN(CCCSc3ccccc3NC(=O)/C=C/c3ccccc3)CC2)C1=O`, the GI50 is 6.93 µM (inactive) in [1]; 9.91 µM (inactive) in experiment [2]; 2.93 µM (inactive) in experiment [3]; 2.01 µM (inactive) in experiment [4]; 3.82 µM (inactive) in [5]; 2.86 µM (inactive) in experiment [7]. The GI50 in experiment [8] was 3.85 µM (inactive); in experiment [9] it was 1.71 µM (inactive); in [10], 1.73 µM (inactive); in experiment [11], 2 µM (inactive); in experiment [19] it was 2.24 µM (inactive); in experiment [12], 4.05 µM (inactive). The GI50 in experiment [13] was 3.18 µM (inactive); in experiment [14], 5.45 µM (inactive); in experiment [15] it was 7.55 µM (inactive); in [16], 4.21 µM (inactive); in experiment [20], 2.11 µM (inactive); in experiment [17], 5.27 µM (inactive). Also, the GI50 in experiment [18] was 2.1 µM (inactive).

Turning to `Nc1ccc2ccc(N3CCNCC3)nc2n1`, the GI50 is > 100 µM (inactive) in experiment [1]; > 100 µM (inactive) in experiment [2]; 31.6 µM (inactive) in experiment [3]; 49.1 µM (inactive) in experiment [4]; > 100 µM (inactive) in [5]; 46 µM (inactive) in experiment [6]. For the same compound, the GI50 in experiment [7] was 19.5 µM (inactive); in experiment [8], 50.8 µM (inactive); in experiment [9], 55.1 µM (inactive); in experiment [10], 37.3 µM (inactive); in [11] it was 32.4 µM (inactive); in [19], 21.4 µM (inactive). Besides, the GI50 in experiment [12] is 44 µM (inactive); in experiment [13], 17.9 µM (inactive); in experiment [14], 44.7 µM (inactive); in experiment [16] it was 44.7 µM (inactive); in experiment [20] it was > 100 µM (inactive); in experiment [17] it was 42.2 µM (inactive). Also, in [18], the GI50 was 33.4 µM (inactive).

Regarding `Nc1nc2c(c(=O)[nH]1)N=C(COP(=O)(O)OP(=O)(O)O)CN2`, the GI50 in [1], in experiment [2], in [3], in [4], in experiment [5] and in experiment [7] was > 100 µM (inactive) in each case. The GI50 in experiment [8], in [9], in experiment [10], in experiment [11], in experiment [19] and in [14] was > 100 µM (inactive) in each case. The GI50 in [15], in experiment [16], in [20], in experiment [17] and in [18] was > 100 µM (inactive) each time.

Take `CCOC(=O)c1c(-c2ccc(OC)cc2)c(C#N)c(=S)n(C2OC(COC(C)=O)C(OC(C)=O)C(OC(C)=O)C2OC(C)=O)c1-c1ccccc1` (stereo unspecified): the GI50 in [1] was > 100 µM (inactive); in experiment [2], > 100 µM (inactive); in experiment [3], > 100 µM (inactive); in [5] it was > 100 µM (inactive); in experiment [6], 17.8 µM (inactive); in experiment [7], > 100 µM (inactive). Moreover, the GI50 in experiment [8], in [9], in experiment [10], in [11], in [12] and in experiment [13] was > 100 µM (inactive) in each case. Besides, the GI50 in experiment [14], in experiment [15], in experiment [16], in experiment [20], in experiment [17] and in experiment [18] was > 100 µM (inactive) throughout.

As to `S=C1CCSc2c(ccc3ccccc23)N1`, the GI50 in [1], in [2], in [3], in experiment [4], in experiment [5] and in experiment [7] was > 100 µM (inactive) each time. The GI50 is 56 µM (inactive) in [8]; > 100 µM (inactive) in experiment [9]; > 100 µM (inactive) in experiment [10]; 30 µM (inactive) in experiment [11]; > 100 µM (inactive) in experiment [19]; 71.8 µM (inactive) in experiment [12]. In addition, the GI50 in [13] is > 100 µM (inactive); in experiment [14], 41 µM (inactive); in experiment [15], 0.512 µM (active); in [16], 58.6 µM (inactive); in [20], > 100 µM (inactive); in experiment [17] it was 95.5 µM (inactive). Also, in experiment [18], the GI50 was 35.6 µM (inactive).

Regarding `Cn1c2ccccc2c2cc(N3CCCC3)c3c(c21)C(=O)N(c1ccccc1)C3=O`, the GI50 in [1], in experiment [3], in experiment [4], in experiment [5], in experiment [7] and in experiment [8] was > 100 µM (inactive) throughout. For the same compound, the GI50 in experiment [9] was > 100 µM (inactive); in experiment [10], 66.4 µM (inactive); in experiment [11], > 100 µM (inactive); in [19], 47 µM (inactive); in experiment [12] it was > 100 µM (inactive); in experiment [13] it was > 100 µM (inactive). The GI50 in experiment [14] is > 100 µM (inactive); in experiment [15], 32.5 µM (inactive); in [16], 88.1 µM (inactive); in experiment [20], > 100 µM (inactive); in [17], > 100 µM (inactive); in experiment [18], > 100 µM (inactive).
